From US20240254118A1, “PRMT5 INHIBITORS AND USES THEREOF” (Gilead Sciences, Inc., priority 2022, published 2024)

How the values were obtained:
[1] = system: SDMA signal (PRMT5 inhibition) in HCT116 MTAP-deleted cells; test: Symmetric di-methyl arginine image-based high content screen assay (SDMA assay), HCT116 MTAP-deleted; format: cell-based; details: SDMA assay; for EC50: Homo sapiens, HCT-116, 72 h, 3 days of treatment, cell line not given, taken as HCT116 MTAP-deleted, read-out: EC50 (SDMA assay); for EC50 selectivity (SDMA assay): taken as HCT116 WT versus MTAP-deleted
Procedure, shortened: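 HCT116 MTAP-deleted cells treated with compound until Day 3, then formalin-fixed, permeabilized and immunostained for SDMA, with DAPI nuclear counterstain. Imaged by high-content microscopy; SDMA read-out is mean Alexa 488 intensity per DAPI-defined cell, reflecting PRMT5 inhibition.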

[2] = system: HCT116 MTAP-deleted cells; test: Cell viability assay (CellTiter-Glo, 7 days), HCT116 MTAP-deleted; details: Homo sapiens, HCT-116, 168 h

Row | Structure (SMILES) | EC50 [1] | EC50 selectivity (SDMA assay) [1] | CC50 [2]
1 | Cn1ncc2c(N)nc3ccc(C(=O)N(Cc4csc(C(F)(F)F)n4)N4CCCOC4=O)cc3c21 [Example 136, 4-amino-1-methyl-N-(2-oxo-1,3-oxazinan-3-yl)-N-((2-(trifluoromethyl)thiazol-4-yl)methyl)-1H-pyrazolo[4,3-c]quinoline-8-carboxamide] | 1 to 5 nM | 724 | 100 to 1000 nM
2 | CN(C(=O)OC(C)(C)C)N(Cc1ccc(C(F)(F)F)cn1)C(=O)c1ccc2nc(N)c3cnn(C)c3c2c1 [Example 137, tert-butyl N-[(4-amino-1-methyl-pyrazolo[4,3-c]quinoline-8-carbonyl)-[[5-(trifluoromethyl)-2-pyridyl]methyl]amino]-N-methyl-carbamate] | 1 to 5 nM | 159 | < 100 nM
3 | Cn1ncc2c(N)nc3ccc(C(=O)N(Cc4ccc(C(F)(F)F)cn4)N4CCS(=O)(=O)CC4)cc3c21 [Example 138, 4-amino-N-(1,1-dioxo-1,4-thiazinan-4-yl)-1-methyl-N-[[5-(trifluoromethyl)-2-pyridyl]methyl]pyrazolo[4,3-c]quinoline-8-carboxamide] | > 5 nM | 174 | > 1000 nM
4 | Cn1ncc2c(N)nc3ccc(C(=O)N(Cc4cn5ccccc5n4)N4Cc5ccccc5C4=O)cc3c21 [Example 139, 4-amino-N-(imidazo[1,2-a]pyridin-2-ylmethyl)-1-methyl-N-(1-oxoisoindolin-2-yl)pyrazolo[4,3-c]quinoline-8-carboxamide] | > 5 nM | 20 | < 100 nM
5 | CN(C(=O)C12CC(C1)C2)N(Cc1ccc(Cl)cn1)C(=O)c1ccc2nc(N)c3cnn(C)c3c2c1 [Example 140, 4-amino-N′-(bicyclo[1.1.1]pentane-1-carbonyl)-N-((5-chloropyridin-2-yl)methyl)-N′,1-dimethyl-1H-pyrazolo[4,3-c]quinoline-8-carbohydrazide] | < 1 nM | 456 | < 100 nM
6 | Cn1ncc2c(N)nc3cc(Cl)c(C(=O)N(Cc4ccc(C(F)(F)F)cn4)N4CCCC4=O)cc3c21 [Example 141, 4-amino-7-chloro-1-methyl-N-(2-oxopyrrolidin-1-yl)-N-[[5-(trifluoromethyl)-2-pyridyl]methyl]pyrazolo[4,3-c]quinoline-8-carboxamide] | 1 to 5 nM | 58 | < 100 nM
7 | Cn1ncc2c(N)nc3cc(F)c(C(=O)N(Cc4ccc(C(F)(F)F)cn4)N4CCOCC4)cc3c21 [Example 142, 4-amino-7-fluoro-1-methyl-N-morpholino-N-((5-(trifluoromethyl)pyridin-2-yl)methyl)-1H-pyrazolo[4,3-c]quinoline-8-carboxamide] | < 1 nM | 32 | < 100 nM
8 | Cn1ncc2c(N)nc3cc(Cl)c(C(=O)N(Cc4ccc(C(F)(F)F)cn4)N4CCCOC4=O)cc3c21 [Example 143, 4-amino-7-chloro-1-methyl-N-(2-oxo-1,3-oxazinan-3-yl)-N-[[5-(trifluoromethyl)-2-pyridyl]methyl]pyrazolo[4,3-c]quinoline-8-carboxamide] | 1 to 5 nM | 67 | < 100 nM
9 | Cn1ncc2c(N)nc3cc(F)c(C(=O)N(Cc4ccc(C(F)(F)F)cn4)N4CCCOC4=O)cc3c21 [Example 144, 4-amino-7-fluoro-1-methyl-N-(2-oxo-1,3-oxazinan-3-yl)-N-[[5-(trifluoromethyl)-2-pyridyl]methyl]pyrazolo[4,3-c]quinoline-8-carboxamide] | 1 to 5 nM | 43 | < 100 nM
10 | Cn1ncc2c(N)nc3cc(F)c(C(=O)N(Cc4ccc(C(F)(F)F)cn4)N4CCOC4=O)cc3c21 [Example 145, 4-amino-7-fluoro-1-methyl-N-(2-oxooxazolidin-3-yl)-N-[[5-(trifluoromethyl)-2-pyridyl]methyl]pyrazolo[4,3-c]quinoline-8-carboxamide] | < 1 nM | 45 | < 100 nM
